Source: patent US4772586A, “Novel derivatives of arginine vasopressin antagonists” (Medical College of Ohio, priority 1986, dated 1988)
*1 amine or outer side, *2 acyl side, *3 side chain or, on linkers, in order; H or OH if unused. Where a SMILES comes first, the peptide text is derived from it. Bridges are numbered along the chain shown (N, C = ends). [ ]: non-standard residue; d: D form. The star is where a group is joined. Ethylenediamine = C(CN[*:2])N[*:1]; X1 = O=C(CC1(S[*:2])CCCCC1)[*:1]; Orn = NCCC[C@H](N)C(=O)O; NHCH2CH2OH = OCCN*; βAla = NCCC(=O)O

Columns and labels:
[1] = tested on: vasopressor response to arginine vasopressin; assay: Antagonism to the vasopressor response (Anti-VP); format: in vivo
Method in brief: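 In vivo antagonism of arginine vasopressin pressor response per Dyckes et al. Effective dose (nmol/kg) is the antagonist dose making the response to 2x agonist units, injected 20 min later, equal that to 1x units. pA2 is the negative log of effective dose divided by 67 ml/kg distribution volume.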

[2] = tested on: antidiuretic response to arginine vasopressin; assay: Antagonism of the antidiuretic response to arginine vasopressin (Anti-ADH); format: in vivo, rats; settings: for Anti-ADH Potency pA2: estimated in vivo pA2
Method in brief: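 Compounds were given intravenously to ethanol-anesthetized, water-loaded rats, followed by arginine vasopressin challenge. Effective dose (nmol/kg) is the antagonist dose that reduces the response to 2x units of agonist, given 20 min later, to the response to 1x units. pA2 is the negative log of effective dose divided by an estimated 67 ml/kg distribution volume.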

[3] = Table 4, estimated in vivo pA2, ^+ = mixed

| SMILES | Anti-VP Potency pA2 ([1]; Table 2, estimated in vivo pA2) | Anti-ADH Potency pA2 ([2]; Table 2) | Anti-VP Potency pA2 [1, 3] | Anti-ADH Potency pA2 ([2]; Table 4) | also measured |
| --- | --- | --- | --- | --- | --- |
| CC[C@H](C)[C@@H]1NC(=O)[C@H](Cc2ccccc2)NC(=O)[C@@H](Cc2ccccc2)NC(=O)CC2(CCCCC2)SSC[C@@H](C(=O)N2CCC[C@H]2C(=O)N[C@@H](CCCNC(=N)N)C(=O)N[C@H](C(N)=O)C(C)C)NC(=O)[C@H](CC(N)=O)NC1=O [Val(NH2), [1-(beta-mercapto-beta,beta-cyclopentamethylenepropionic acid), 2-D-phenylalanine, 4-isoleucine, 9-valinamide]-arginine vasopressin] ([dF]FINCPRV-NH2; linker N-5 via X1) | 7.66 ± 0.10 | 8.11 ± 0.11 | – | – | – |
| CC[C@H](C)[C@@H]1NC(=O)[C@H](Cc2ccccc2)NC(=O)[C@@H](Cc2ccccc2)NC(=O)CC2(CCCCC2)SSC[C@@H](C(=O)N2CCC[C@H]2C(=O)N[C@@H](CCCNC(=N)N)C(=O)NCCN)NC(=O)[C@H](CC(N)=O)NC1=O [[1-(beta-mercapto-beta,beta-cyclopentamethylenepropionic acid), 2-D-phenylalanine, 4-isoleucine, 8-arginine-N-(beta-amino)ethylamide, 9-desglycinamide] vasopressin] ([dF]FINCPR-Ethylenediamine; linker N-5 via X1) | – | – | 7.89 ± 0.04 | 8.11 ± 0.06 | – |
| CC[C@H](C)[C@@H]1NC(=O)[C@H](Cc2ccccc2)NC(=O)[C@@H](Cc2ccccc2)NC(=O)CC2(CCCCC2)SSC[C@@H](C(=O)N2CCC[C@H]2C(=O)N[C@@H](CCCNC(=N)N)C(=O)N[C@@H](CCCN)C(N)=O)NC(=O)[C@H](CC(N)=O)NC1=O [Orn(NH2), [1-(beta-mercapto-beta,beta-cyclopentamethylenepropionic acid), 2-D-phenylalanine, 4-isoleucine, 9-ornithinamide]-arginine vasopressin] ([dF]FINCPR[Orn]-NH2; linker N-5 via X1) | 7.80 ± 0.05 | 8.18 ± 0.09 | – | – | – |
| CC[C@H](C)[C@@H]1NC(=O)[C@H](Cc2ccccc2)NC(=O)[C@@H](Cc2ccccc2)NC(=O)CC2(CCCCC2)SSC[C@@H](C(=O)N2CCC[C@H]2C(=O)N[C@@H](CCCNC(=N)N)C(=O)N[C@@H](Cc2ccccc2)C(N)=O)NC(=O)[C@H](CC(N)=O)NC1=O [Phe(NH2), [1-(beta-mercapto-beta,beta-cyclopentamethylenepropionic acid), 2-D-phenylalanine, 4-isoleucine, 9-phenylalaninamide]-arginine vasopressin] ([dF]FINCPRF-NH2; linker N-5 via X1) | 7.28 ± 0.11 | 7.69 ± 0.09 | – | – | – |
| CCOc1ccc(C[C@H]2NC(=O)CC3(CCCCC3)SSC[C@@H](C(=O)N3CCC[C@H]3C(=O)N[C@@H](CCCNC(=N)N)C(=O)NCCC(=O)NC)NC(=O)[C@H](CC(N)=O)NC(=O)[C@H](C(C)C)NC(=O)[C@H](Cc3ccccc3)NC2=O)cc1 [1-(beta-mercapto-beta,beta-cyclopentamethyleneproprionic acid), 2-D-(O-ethyl)tyrosine, 4-valine, 9-beta-alanine-N-methylamide]-arginine vasopressin] ([dY](Et)FVNCPR[βAla]-NHMe; linker N-5 via X1) | – | – | 7.77 ± 0.05 | 7.61 ± 0.02 | – |
| CC[C@H](C)[C@@H]1NC(=O)[C@H](Cc2ccccc2)NC(=O)[C@@H](Cc2ccccc2)NC(=O)CC2(CCCCC2)SSC[C@@H](C(=O)N2CCC[C@H]2C(=O)N[C@@H](CCCNC(=N)N)C(=O)NCC(=O)NCC(N)=O)NC(=O)[C@H](CC(N)=O)NC1=O [[1-(beta-mercapto-beta,beta-cyclopentamethylenepropionic acid), 2-D-phenylalanine, 4-isoleucine, 9-glycine]-arginine vasopressinyl glycinamide] ([dF]FINCPRGG-NH2; linker N-5 via X1) | – | – | 7.72 | 7.83 ± 0.04 | – |
| CC[C@H](C)[C@@H]1NC(=O)[C@H](Cc2ccccc2)NC(=O)[C@@H](Cc2ccccc2)NC(=O)CC2(CCCCC2)SSC[C@@H](C(=O)N2CCC[C@H]2C(=O)N[C@@H](CCCNC(=N)N)C(=O)N[C@@H](Cc2ccc(O)cc2)C(N)=O)NC(=O)[C@H](CC(N)=O)NC1=O [Tyr(NH2), [1-(beta-mercapto-beta,beta-cyclopentamethylenepropionic acid), 2-D-phenylalanine, 4-isoleucine, 9-tyrosinamide]-arginine vasopressin] ([dF]FINCPRY-NH2; linker N-5 via X1) | 7.27 ± 0.05 | 7.85 ± 0.06 | – | – | – |
| CC[C@H](C)[C@@H]1NC(=O)[C@H](Cc2ccccc2)NC(=O)[C@@H](Cc2ccccc2)NC(=O)CC2(CCCCC2)SSC[C@@H](C(=O)N2CCC[C@H]2C(=O)N[C@@H](CCCNC(=N)N)C(=O)N[C@H](C(N)=O)[C@@H](C)O)NC(=O)[C@H](CC(N)=O)NC1=O [Thr(NH2), [1-(beta-mercapto-beta,beta-cyclopentamethylenepropionic acid), 2-D-phenylalanine, 4-isoleucine, 9-threoinamide]-arginine vasopressin] ([dF]FINCPRT-NH2; linker N-5 via X1) | 7.64 ± 0.11 | 7.39 ± 0.04 | – | – | – |
| CC[C@H](C)[C@@H]1NC(=O)[C@H](Cc2ccccc2)NC(=O)[C@@H](Cc2ccccc2)NC(=O)CC2(CCCCC2)SSC[C@@H](C(=O)N2CCC[C@H]2C(=O)N[C@@H](CCCNC(=N)N)C(=O)NCC(=O)NCCO)NC(=O)[C@H](CC(N)=O)NC1=O [[1-(beta-mercapto-beta,beta-cyclopentamethylenepropionic acid), 2-D-phenylalanine, 4-isoleucine, 9-glycine-N-(beta-hydroxy)ethylamide]-arginine vasopressin] ([dF]FINCPRG-NHCH2CH2OH; linker N-5 via X1) | – | – | 6.92 ± 0.07 | 8.20 ± 0.12 | – |
| CC[C@H](C)[C@@H]1NC(=O)[C@H](Cc2ccccc2)NC(=O)[C@@H](Cc2ccccc2)NC(=O)CC2(CCCCC2)SSC[C@@H](C(=O)N2CCC[C@H]2C(=O)N[C@@H](CCCNC(=N)N)C(=O)N2CCC[C@H]2C(N)=O)NC(=O)[C@H](CC(N)=O)NC1=O [Pro(NH2), [1-(beta-mercapto-beta,beta-cyclopentamethylenepropionic acid), 2-D-phenylalanine, 4-isoleucine, 9-prolinamide]-arginine vasopressin] ([dF]FINCPRP-NH2; linker N-5 via X1) | 7.12 ± 0.11 | 7.19 ± 0.04 | – | – | – |
| CNC(=O)[C@H](CCCNC(=N)N)NC(=O)[C@@H]1CCCN1C(=O)[C@@H]1CSSC2(CCCCC2)CC(=O)N[C@@H](Cc2ccc(OC)cc2)C(=O)N[C@@H](Cc2ccccc2)C(=O)N[C@@H](CCC(N)=O)C(=O)N[C@@H](CC(N)=O)C(=O)N1 [[1-(beta-mercapto-beta,beta-cyclopentamethylenepropionic acid), 2-(O-methyl)tyrosine, 8-arginine-N-methylamide, 9-desglycinamide] vasopressin] (Y(Me)FQNCPR-NHMe; linker N-5 via X1) | – | – | 8.73 ± 0.02 | ~ 5.9 | – |
| CC[C@H](C)[C@@H]1NC(=O)[C@H](Cc2ccccc2)NC(=O)[C@@H](Cc2ccc(O)cc2)NC(=O)CC2(CCCCC2)SSC[C@@H](C(=O)N2CCC[C@H]2C(=O)N[C@@H](CCCNC(=N)N)C(=O)NCCN)NC(=O)[C@H](CC(N)=O)NC1=O [[1-beta-mercapto-beta,beta-cyclopentamethylenepropionic acid, 2-D-tyrosine, 4-isoleucine, 8-arginine-N-(beta-amino)ethylamide, 9-desglycinamide] vasopressin] ([dY]FINCPR-Ethylenediamine; linker N-5 via X1) | – | – | 7.93 ± 0.08 | 7.81 ± 0.06 | – |
| COc1ccc(C[C@@H]2NC(=O)CC3(CCCCC3)SSC[C@@H](C(=O)N3CCC[C@H]3C(=O)N[C@@H](CCCNC(=N)N)C(=O)N[C@@H](C)C(N)=O)NC(=O)[C@H](CC(N)=O)NC(=O)[C@H](CCC(N)=O)NC(=O)[C@H](Cc3ccccc3)NC2=O)cc1 [Example 9(b), [1-(beta-mercapto-beta,beta-cyclopentamethylenepropionic acid), 2-(O-methyl)tyrosine, 9-alaninamide]-argine vasopressin] (Y(Me)FQNCPRA-NH2; linker N-5 via X1) | – | – | – | – | Anti-VP: pA2 ([1]; text after Table 2): 8.74±0.08; Anti-ADH: pA2 ([2]; text after Table 2): about 6.0 |
| CC[C@H](C)[C@@H]1NC(=O)[C@H](Cc2ccccc2)NC(=O)[C@@H](Cc2ccccc2)NC(=O)CC2(CCCCC2)SSC[C@@H](C(=O)N2CCC[C@H]2C(=O)N[C@@H](CCCNC(=N)N)C(N)=O)NC(=O)[C@H](CC(N)=O)NC1=O [desGly^9 d(CH2)5 [D-Phe^2,Ile^ 4]AVP, [1-(beta-mercapto-beta,beta-cyclopentamethylenepropionic acid), 2-D-phenylalanine, 4-isoleucine, 9-desglycine]-arginine vasopressin] ([dF]FINCPR-NH2; linker N-5 via X1) | – | – | – | – | Anti-VP pA2 ([1]; Table 1, estimated in vivo pA2): 7.84 ± 0.03; Anti-ADH pA2 ([2]; Table 1, estimated in vivo pA2 = negative log of effective dose divided by volume of distribution (67 ml/kg)): 8.05 ± 0.09 |
| CC[C@H](C)[C@H](NC(=O)[C@H](CCCNC(=N)N)NC(=O)[C@@H]1CCCN1C(=O)[C@@H]1CSSC2(CCCCC2)CC(=O)N[C@H](Cc2ccccc2)C(=O)N[C@@H](Cc2ccccc2)C(=O)N[C@@H]([C@@H](C)CC)C(=O)N[C@@H](CC(N)=O)C(=O)N1)C(N)=O [Ile(NH2), [1-(beta-mercapto-beta,beta-cyclopentamethylenepropionic acid), 2-D-phenylalanine, 4-isoleucine, 9-isoleucinamide]-arginine vasopressin] ([dF]FINCPRI-NH2; linker N-5 via X1) | 7.04 ± 0.05 | 7.58 ± 0.11 | – | – | – |
